# Legend:
# [1] = Lyophilisation solubility assay (Lysa); assay type: physicochemical; conditions: phosphate buffer, pH 6.5, aqueous buffer, thermodynamic from solid
# Protocol: The aqueous solubility is an important physico-chemical property that plays a significant role in various physical and biological processes. It is desirable to have good solubility which enables good permeability and gastric and intestinal absorption, linear dose proportionality, less PK variability, and easy formulation for PD/PK studies. […] Lyophilisation solubility assay (Lysa) is a well adopted high throughput assay to measure compound solubility in industry.
# Samples are prepared in duplicate from 10 mM DMSO stock solutions. After evaporation of DMSO with a centrifugal vacuum evaporator, the residue is solved in 0.05 M phosphate buffer (pH 6.5), stirred for one hour and shaken for two hours. After one night, the solutions is filtered using a microtiter filter plate and the filtrate and its 1/10 dilution are then analyzed by direct UV measurement or by HPLC-UV. […] The results are in μg/mL.
# HBV = assay: Anti-HBV activity in vitro in HepG2.2.15 cells (extracellular HBV DNA by qPCR); assay type: cell-based, Hepatitis B virus; conditions: Hepatitis B virus; HepG2.2.15 cells; in-house data; read-out: EC50
# From the text: HepG2.2.15 and HepDE19 are stably-transfected cell lines containing the HBV genome. Both cell lines are derived from the hepatoblastoma cell line Hep G2 (American Type Culture Collection, ATCC® HB-8065™) by the published procedures described in references: MA Selles et al. Proc. Natl. Acad. Sci. USA 1987, 84, 1005-1009 and H Guo et al. Journal of Virology 2007, 81, 12472-12484, respectively. Both cell lines were maintained in Dulbecco's modified Eagle's medium (DMEM)-F12 medium supplemented with 10% fetal bovine serum, 100 U/mL penicillin, 100 μg/mL streptomycin, and 0.5 mg/mL of G418.
# While HepG2.2.15 cells constitutively support HBV replication and production of virus particles, HepDE19 cells are inducible by tetracycline. Addition of 1 μg/mL tetracycline in culture medium suppresses HBV replication in HepDE19 cells, whereas switching to tetracycline-free medium resumes this process.
# HepG2.2.15 cells were seeded into 96-well plates (3×10^4 cells in 100 μl media per well) and incubated overnight at 37° C. The test compounds were serially half-log diluted in DMSO, then diluted 100 times in culture media. 100 μL diluted compounds were added into the plates to reach 0.5% final concentration of DMSO in every well. Five days after compound treatment, culture supernatant was collected for further analysis.
# For quantitative PCR detection of extracellular HBV DNA, 100 μL culture supernatant was collected and processed in MagNA Pure 96 Nucleic Acid Purification System (Roche Applied Science) for viral DNA extraction. The extracted samples were subjected to HBV DNA quantification by qPCR.
# The compounds of the present invention were tested for their capacity to inhibit a HBV activity and activation as described herein.
# [2] = Metabolic stability study in human microsome; assay type: in vitro ADME
# Protocol: Human Microsomes were preincubated with test compound for 10 min at 37° C. in 100 mM phosphate buffer, pH 7.4. The reactions were initiated by adding NADPH or NADPH regenerating system to give a final incubation volume of 400 μL. For NADPH system, the final incubations contained 1 μM test compound, 0.5 mg/mL liver microsomal protein, 1 mM NADPH in 100 mM phosphate buffer, pH 7.4. For the NADPH regenerating system, the final incubations contained 1 μM test compound, 0.5 mg/mL liver microsomal protein, 3 mM glucose 6-phosphate, 1 mM NADP, 3 mM MgCl2 and 0.05 mg/mL glucose 6-phosphate dehydrogenase in 100 mM phosphate buffer, pH 7.4. After incubation times of 0, 3, 6, 9, 15 and 30 minutes at 37° C., 50 μL samples was removed and transferred to 150 μL methanol solution which was maintained at 4° C. containing 2 μM tolbutamide (internal standard) to terminating the reaction. Following precipitation and centrifugation, the amount of compound remaining in the samples were determined by LC-MS/MS. Controls of no NADPH or NADPH regenerating system at zero and 30 min were also prepared and analyzed.
compound,measurement,setting,value
"CCOC(=O)C1=C(CN2CC(F)(F)C[C@H]2C(=O)O)NC(c2nccs2)=NC1c1ccc(F)c(F)c1Cl (stereo in doubt) [Example 55, (R)-6-((S)-2-Carboxy-4,4-difluoro-pyrrolidin-1-ylmethyl)-4-(2-chloro-3,4-difluoro-phenyl)-2-thiazol-2-yl-1,4-dihydro-pyrimidine-5-carboxylic acid ethyl ester]",solubility thermodynamic,[1],> 670 µg/mL
same,EC50,HBV,1 nM
"COC(=O)C1=C(CN2CCSCC2C(=O)O)NC(c2nccs2)=N[C@H]1c1ccc(F)cc1Cl (stereo in doubt) [Example 91, (3S)-4-[[(4R)-4-(2-Chloro-4-fluoro-phenyl)-5-methoxycarbonyl-2-thiazol-2-yl-1,4-dihydropyrimidin-6-yl]methyl]thiomorpholine-3-carboxylic acid]",Human Hepatic Clearance,[2],1.62 mL/min/kg
same,solubility thermodynamic,[1],584 µg/mL
same,EC50,HBV,38 nM
"COC(=O)C1=C(CN2CCOC[C@H]2C(=O)O)NC(c2nc(C)cn2C)=NC1c1ccc(F)cc1Cl (stereo in doubt) [Example 92, (S)-4-[(S)-6-(2-Chloro-4-fluoro-phenyl)-2-(1,4-dimethyl-1H-imidazol-2-yl)-5-methoxycarbonyl-3,6-dihydro-pyrimidin-4-ylmethyl]-morpholine-3-carboxylic acid]",Human Hepatic Clearance,[2],1.26 mL/min/kg
same,solubility thermodynamic,[1],> 602 µg/mL
same,EC50,HBV,14 nM
"COC(=O)C1=C(CN2CC(F)(F)C[C@H]2C(=O)O)NC(c2ncc(F)cc2F)=N[C@H]1c1ccc(F)cc1Cl [Example 4, (R)-6-((S)-2-Carboxy-4,4-difluoro-pyrrolidin-1-ylmethyl)-4-(2-chloro-4-fluoro-phenyl)-2-(3,5-difluoro-pyridin-2-yl)-1,4-dihydro-pyrimidine-5-carboxylic acid methyl ester]",Human Hepatic Clearance,[2],5.11 mL/min/kg
same,solubility thermodynamic,[1],> 700 µg/mL
same,EC50,HBV,1.5 nM
"COC(=O)C1=C(CN2C[C@H](C(=O)O)CC(F)(F)C2)NC(c2nccs2)=N[C@H]1c1ccc(F)cc1Cl [Example 14, (R)-6-((R)-5-Carboxy-3,3-difluoro-piperidin-1-ylmethyl)-4-(2-chloro-4-fluoro-phenyl)-2-thiazol-2-yl-1,4-dihydro-pyrimidine-5-carboxylic acid methyl ester]",Human Hepatic Clearance,[2],1.41 mL/min/kg
same,solubility thermodynamic,[1],> 644 µg/mL
same,EC50,HBV,41 nM
"COC(=O)C1=C(CN2CC(F)(F)C[C@H]2C(=O)O)NC(c2cc(Cl)cs2)=N[C@H]1c1ccc(F)cc1Cl [Example 23, (R)-6-((S)-2-Carboxy-4,4-difluoro-pyrrolidin-1-ylmethyl)-4-(2-chloro-4-fluoro-phenyl)-2-(4-chloro-thiophen-2-yl)-1,4-dihydro-pyrimidine-5-carboxylic acid methyl ester]",Human Hepatic Clearance,[2],8.8 mL/min/kg
same,solubility thermodynamic,[1],172 µg/mL
same,EC50,HBV,25 nM
"COC(=O)C1=C(CN2CC(F)(F)C[C@H]2C(=O)O)NC(c2ncccc2C)=N[C@H]1c1ccc(F)cc1Cl [Example 24, (R)-6-((S)-2-Carboxy-4,4-difluoro-pyrrolidin-1-ylmethyl)-4-(2-chloro-4-fluoro-phenyl)-2-(3-methyl-pyridin-2-yl)-1,4-dihydro-pyrimidine-5-carboxylic acid methyl ester]",Human Hepatic Clearance,[2],3.19 mL/min/kg
same,solubility thermodynamic,[1],656 µg/mL
same,EC50,HBV,26 nM
"COC(=O)C1=C(CN2CC(F)(F)C[C@H]2C(=O)O)NC(c2ccc(F)cc2F)=N[C@H]1c1ccc(F)cc1Cl [Example 33, (R)-6-((S)-2-Carboxy-4,4-difluoro-pyrrolidin-1-ylmethyl)-4-(2-chloro-4-fluoro-phenyl)-2-(2,4-difluoro-phenyl)-1,4-dihydro-pyrimidine-5-carboxylic acid methyl ester]",Human Hepatic Clearance,[2],4.15 mL/min/kg
same,EC50,HBV,23 nM
"COC(=O)C1=C(CN2CC(F)(F)C[C@H]2C(=O)O)NC(c2nc(SC)cs2)=N[C@H]1c1ccc(F)cc1Cl [Example 62, (2S)-1-[[(4R)-4-(2-Chloro-4-fluorophenyl)-5-methoxycarbonyl-2-(4-methylsulfanyl-1,3-thiazol-2-yl)-1,4-dihydropyrimidin-6-yl]methyl]-4,4-difluoropyrrolidine-2-carboxylic acid]",Human Hepatic Clearance,[2],9.06 mL/min/kg
same,EC50,HBV,14 nM
"CCOC(=O)C1=C(CN2CC(F)(F)C[C@H]2C(=O)O)NC(c2nccs2)=N[C@H]1c1cccc(F)c1Br [Example 67, (R)-4-(2-Bromo-3-fluoro-phenyl)-6-((S)-2-carboxy-4,4-difluoro-pyrrolidin-1-ylmethyl)-2-thiazol-2-yl-1,4-dihydro-pyrimidine-5-carboxylic acid ethyl ester]",Human Hepatic Clearance,[2],6.42 mL/min/kg
same,solubility thermodynamic,[1],590 µg/mL
"COC(=O)C1=C(CN2CC(F)(F)C[C@H]2C(=O)O)NC(c2nccs2)=N[C@H]1c1ccccc1Br [Example 72, (R)-4-(2-Bromo-phenyl)-6-((S)-2-carboxy-4,4-difluoro-pyrrolidin-1-ylmethyl)-2-thiazol-2-yl-1,4-dihydro-pyrimidine-5-carboxylic acid methyl ester]",Human Hepatic Clearance,[2],5.16 mL/min/kg
same,solubility thermodynamic,[1],> 670 µg/mL
"COC(=O)C1=C(CN2CC(F)(F)C[C@H]2C(=O)O)NC(c2nccs2)=N[C@H]1c1ccc(Cl)cc1F [Example 76, (R)-6-((S)-2-Carboxy-4,4-difluoro-pyrrolidin-1-ylmethyl)-4-(4-chloro-2-fluoro-phenyl)-2-thiazol-2-yl-1,4-dihydro-pyrimidine-5-carboxylic acid methyl ester]",Human Hepatic Clearance,[2],1.72 mL/min/kg
same,solubility thermodynamic,[1],> 630 µg/mL
"COC(=O)C1=C(CN2CSCCC2C(=O)O)NC(c2nccs2)=N[C@H]1c1ccc(F)cc1Cl (stereo partly drawn) [Example 86, 3-[[(4R)-4-(2-Chloro-4-fluoro-phenyl)-5-methoxycarbonyl-2-thiazol-2-yl-1,4-dihydropyrimidin-6-yl]methyl]-1,3-thiazinane-4-carboxylic acid]",Human Hepatic Clearance,[2],6.8 mL/min/kg
same,solubility thermodynamic,[1],> 596 µg/mL
"COC(=O)C1=C(CN2CCOC[C@H]2C(=O)O)NC(c2nc(C(F)F)cs2)=N[C@H]1c1ccc(F)cc1Cl [Example 88, (3S)-4-[[(4R)-4-(2-Chloro-4-fluoro-phenyl)-2-[4-(difluoromethyl)thiazol-2-yl]-5-methoxycarbonyl-1,4-dihydropyrimidin-6-yl]methyl]morpholine-3-carboxylic acid]",Human Hepatic Clearance,[2],6.46 mL/min/kg
same,solubility thermodynamic,[1],> 665 µg/mL
"COC(=O)C1=C(CN2CC(F)(F)C(C)(C)[C@H]2C(=O)O)NC(c2nccs2)=N[C@H]1c1ccc(F)cc1Cl [Example 89, (R)-6-((S)-2-Carboxy-4,4-difluoro-3,3-dimethyl-pyrrolidin-1-ylmethyl)-4-(2-chloro-4-fluoro-phenyl)-2-thiazol-2-yl-1,4-dihydro-pyrimidine-5-carboxylic acid methyl ester]",Human Hepatic Clearance,[2],6.13 mL/min/kg
same,solubility thermodynamic,[1],> 525 µg/mL
"COC(=O)C1=C(CN2CCSC(C)(C)[C@H]2C(=O)O)NC(c2nccs2)=N[C@H]1c1ccc(F)cc1Cl [Example 90, (3R)-4-[[(4R)-4-(2-Chloro-4-fluoro-phenyl)-5-methoxycarbonyl-2-thiazol-2-yl-1,4-dihydropyrimidin-6-yl]methyl]-2,2-dimethyl-thiomorpholine-3-carboxylic acid]",Human Hepatic Clearance,[2],5.52 mL/min/kg
same,solubility thermodynamic,[1],> 610 µg/mL
